# Test results: patent publication US20150335547A1, “ORAL CARE COMPOSITION CONTAINING IONIC LIQUIDS” (priority 2012, published 2015)
# Test system: biofilm
# Experiment: biofilm removal by ionic liquids (training set for QSFR model)
# Format: cell-based
# Details: where two values were available (MMPZ MeSO4, EMIM Tosylate) the value obtained at the higher pH
# Excerpt: The process of QSFR model building involves assembling a dataset with experimental results and molecular structures, descriptor calculation and contingency analysis followed by model generation and validations. Ionic liquids with biofilm removal data served as a data set for model generation. The details of the dataset are shown in Table 1 (ID and biofilm removal data for ionic liquids selected for model generation (training set).
row,Compound,% removal of biofilm
1,"1,2,3-trimethylimidazolium methyl sulfate [TMIM MeSO4]",51.8%
2,1-ethyl-3-methylimidazolium ethylsulphate [EMIM Ethyl SO4],48.1%
3,"C=CCn1cc[n+](C)c1.[Cl-] [AMIM Cl, 1-allyl-3-methylimidazolium (AMIM) chloride]",44.8%
4,"CCCCn1cc[n+](C)c1.[Br-] [BMIM Br, BMIM bromide (Br)]",48.0%
5,"CCCCn1cc[n+](C)c1.[Cl-] [BMIM Cl, 1-butyl-3-methylimidazolium (BMIM) chloride (Cl)]",43.8%
6,"CCCCn1cc[n+](C)c1.COS(=O)(=O)[O-] [BMIM MeSO4, BMIM methyl sulfate]",53.9%
7,"CCCCCCCCOS(=O)(=O)[O-].CCCCn1cc[n+](C)c1 [BMIM Octyl SO4, BMIM octyl sulfate]",58.6%
8,"CC(=O)[O-].CCCCn1cc[n+](C)c1 [BMIMOAc, BMIM acetate (OAc)]",55.9%
9,"CCCCCCCCCCn1cc[n+](C)c1.[Cl-] [DMIM CL, 1-decyl-3-methylimidazolium (DMIM) chloride]",57.3%
10,"CCn1cc[n+](C)c1.[Br-] [EMIM Br, EMIM bromide (Br)]",48.6%
11,"CCn1cc[n+](C)c1.[Cl-] [EMIM Cl, 1-ethyl-3-methylimidazolium (EMIM) chloride (Cl)]",44.3%
12,"CCn1cc[n+](C)c1.Cc1ccc(S(=O)(=O)[O-])cc1 [EMIM Tosylate, EMIM tosylate]",59.5%
13,"CCOP(=O)([O-])OCC.CCn1cc[n+](C)c1 [EMIM diethyl PO4, EMIM diethyl phosphate]",52.7%
14,"COS(=O)(=O)[O-].Cc1cn(C)[n+](C)c1 [MMMPz MeSO4, 1,2,4-trimethylpyrazolium (MMMPZ) methyl sulfate]",57.8%
15,Tris(2-hydroxyethyl)methylammonium methylsulphate [MTEOA MeSO4],52.8%
